Measurements reported in patent US20240335382A1, “NANO- OR MICRO-EMULSION COMPOSITIONS AND METHODS OF USE THEREOF” (Nutraceutical Wellness, Inc., priority 2021, published 2024).

System: skin of human subjects
Test: Acute primary skin patch test, single 48-hour application
Format: in vivo
Conditions: positive control, 55 subjects completing study
Description: To determine the primary (acute) irritation potential of a test material after a single application to the skin of human subjects for 48 hours.
Test materials to be tested under occlusive conditions were placed on an 8-millimeter aluminum Finn Chamber® (Epitest Ltd. Oy, Tuusula, Finland) supported on Scanpor® Tape (Norgesplaster A/S, Kristiansand, Norway) or an 8-millimeter filter paper coated aluminum Finn Chamber® AQUA supported on a thin flexible transparent polyurethane rectangular film coated on one side with a medical grade acrylic adhesive, consistent with adhesive used in state-of-the-art hypoallergenic surgical tapes or a 7 mm IQ-ULTRA® closed cell system which is made of additive-free polyethylene plastic foam with a filter paper incorporated (It is supplied in units of 10 chambers on a hypoallergenic non woven adhesive tape; the width of the tape is 52 mm and the length is 118 mm) or other equivalents.
Test materials to be tested under semi-occlusive conditions were placed on a test strip with a Rayon/Polypropylene pad or on a 7.5 mm filter paper disc affixed to a strip of hypoallergenic tape (Johnson & Johnson 1 inch First Aid Cloth Tape). […]
Trained skin grading laboratory personnel removed the patch and evaluated the test sites.
In the event of an adverse reaction, the area of erythema and edema is measured. […]

CCCCCCCCCCCCOS(=O)(=O)[O-].[Na+] [2.0% Sodium Lauryl Sulfate Solution, Sodium Lauryl Sulfate]
subjects with a Grade 1 reaction: 16 subjects
